Data published in PubChem BioAssay AID1259407 (Chemical Carcinogenesis Research Information System (CCRIS), 2018).
Calls of active or inactive are those of the source. The rule behind the calls is not given here.

Tested on: CCRIS mutagenicity, Ames/micronucleus/aberration tests
Experiment: CCRIS mutagenicity studies
[1] = Test System: AMES SALMONELLA TYPHIMURIUM, Strain/Indicator: TA98, Metabolic Activation: NONE, Method: STANDARD PLATE
[2] = Test System: AMES SALMONELLA TYPHIMURIUM, Strain/Indicator: TA98, Metabolic Activation: RAT, LIVER, S-9, AROCLOR 1254, Method: STANDARD PLATE
[3] = Test System: AMES SALMONELLA TYPHIMURIUM, Strain/Indicator: TA100, Metabolic Activation: NONE, Method: STANDARD PLATE
[4] = Test System: AMES SALMONELLA TYPHIMURIUM, Strain/Indicator: TA100, Metabolic Activation: RAT, LIVER, S-9, AROCLOR 1254, Method: STANDARD PLATE
[5] = Test System: AMES SALMONELLA TYPHIMURIUM, Strain/Indicator: TA1535, Metabolic Activation: NONE, Method: STANDARD PLATE
[6] = Test System: AMES SALMONELLA TYPHIMURIUM, Strain/Indicator: TA1535, Metabolic Activation: RAT, LIVER, S-9, AROCLOR 1254, Method: STANDARD PLATE
[7] = Test System: AMES SALMONELLA TYPHIMURIUM, Strain/Indicator: TA1537, Metabolic Activation: NONE, Method: STANDARD PLATE
[8] = Test System: AMES SALMONELLA TYPHIMURIUM, Strain/Indicator: TA1537, Metabolic Activation: RAT, LIVER, S-9, AROCLOR 1254, Method: STANDARD PLATE
[9] = Test System: AMES SALMONELLA TYPHIMURIUM, Strain/Indicator: TA1538, Metabolic Activation: NONE, Method: STANDARD PLATE
[10] = Test System: AMES SALMONELLA TYPHIMURIUM, Strain/Indicator: TA1538, Metabolic Activation: RAT, LIVER, S-9, AROCLOR 1254, Method: STANDARD PLATE
[11] = Test System: AMES SALMONELLA TYPHIMURIUM, Strain/Indicator: TA102, Metabolic Activation: NONE, Method: STANDARD PLATE
[12] = Test System: E. COLI, Strain/Indicator: WP2, Metabolic Activation: NONE, Method: STANDARD PLATE

In the case of `C#C[C@]1(O)CC[C@H]2[C@@H]3CCC4=C(CCC(=O)C4)[C@H]3CC[C@@]21C`, the mutagenic call (End Point: IN VITRO CHROMOSOMAL ABERRATIONS, Test System: HUMAN PERIPHERAL LYMPHOCYTES, Metabolic Activation: NONE) is reported as “inactive; negative”, the mutagenic call (End Point: IN VITRO CHROMOSOMAL ABERRATIONS, Test System: HUMAN PERIPHERAL LYMPHOCYTES, Metabolic Activation: RAT, LIVER, S-9, PHENOBARBITONE) is reported as “active; positive (structural changes)” and the mutagenic call (Test System: AMES SALMONELLA TYPHIMURIUM, Strain/Indicator: TA98, Metabolic Activation: MOUSE, LIVER, S-9, Method: STANDARD PLATE) is reported as “inactive; negative”. The mutagenic call [1] was “inactive; negative”, the mutagenic call [2] was “inactive; negative” and the mutagenic call (Test System: AMES SALMONELLA TYPHIMURIUM, Strain/Indicator: TA100, Metabolic Activation: MOUSE, LIVER, S-9, Method: STANDARD PLATE) was “inactive; negative”. The mutagenic call [3] was “inactive; negative”, the mutagenic call [4] was “inactive; negative” and the mutagenic call (Test System: AMES SALMONELLA TYPHIMURIUM, Strain/Indicator: TA1535, Metabolic Activation: MOUSE, LIVER, S-9, Method: STANDARD PLATE) was “inactive; negative”. For the same compound, the mutagenic call [5] was “inactive; negative”, the mutagenic call [6] was “inactive; negative” and the mutagenic call (Test System: AMES SALMONELLA TYPHIMURIUM, Strain/Indicator: TA1537, Metabolic Activation: MOUSE, LIVER, S-9, Method: STANDARD PLATE) was “inactive; negative”. The mutagenic call [7] was “inactive; negative”, the mutagenic call [8] was “inactive; negative” and the mutagenic call (Test System: AMES SALMONELLA TYPHIMURIUM, Strain/Indicator: TA1538, Metabolic Activation: MOUSE, LIVER, S-9, Method: STANDARD PLATE) was “inactive; negative”. The mutagenic call [9] was “inactive; negative” and the mutagenic call [10] was “inactive; negative”.

With `CC1=CCC(O)(C(C)C)CC1` (stereo not drawn) the mutagenic call [1] was “inactive; negative”, the mutagenic call (Test System: AMES SALMONELLA TYPHIMURIUM, Strain/Indicator: TA98, Metabolic Activation: RAT, LIVER, S-9, Method: STANDARD PLATE) was “inactive; negative” and the mutagenic call [3] was “inactive; negative”. The mutagenic call (Test System: AMES SALMONELLA TYPHIMURIUM, Strain/Indicator: TA100, Metabolic Activation: RAT, LIVER, S-9, Method: STANDARD PLATE) was “inactive; negative”, the mutagenic call [11] was “inactive; negative” and the mutagenic call (Test System: AMES SALMONELLA TYPHIMURIUM, Strain/Indicator: TA102, Metabolic Activation: RAT, LIVER, S-9, Method: STANDARD PLATE) was “inactive; negative”.

For `O=Nn1cnc(CC(=O)NO)c1`, the mutagenic call (Test System: AMES SALMONELLA TYPHIMURIUM, Strain/Indicator: TA98, Metabolic Activation: NONE, Method: PREINCUBATION) was “active; positive” and the mutagenic call (Test System: AMES SALMONELLA TYPHIMURIUM, Strain/Indicator: TA100, Metabolic Activation: NONE, Method: PREINCUBATION) was “active; positive”.

With `O=C([O-])[C@H](O)[C@@H](O)[C@H](O)[C@H](O)CO.O=C([O-])[C@H](O)[C@@H](O)[C@H](O)[C@H](O)CO.[Mn+2]` the mutagenic call [1] was “inactive; negative”, the mutagenic call [2] was “inactive; negative” and the mutagenic call [3] was “inactive; negative”. For the same compound, the mutagenic call [4] was “inactive; negative”, the mutagenic call [5] was “inactive; negative” and the mutagenic call [6] was “inactive; negative”. For the same compound, the mutagenic call [7] was “inactive; negative”, the mutagenic call [8] was “inactive; negative” and the mutagenic call [9] was “inactive; negative”. For the same compound, the mutagenic call [10] was “inactive; negative”, the mutagenic call [12] was “inactive; negative” and the mutagenic call (Test System: E. COLI, Strain/Indicator: WP2, Metabolic Activation: RAT, LIVER, S-9, AROCLOR 1254, Method: STANDARD PLATE) was “inactive; negative”.

With `[N-]=[N+]=NCCC(c1ccccc1)c1ccccc1` the mutagenic call (Test System: AMES SALMONELLA TYPHIMURIUM, Strain/Indicator: TA100, Metabolic Activation: RAT, LIVER, S-9, PCB, Method: PREINCUBATION) was “active; positive”.

With `NNCCO` the mutagenic call [12] was “active; positive”, the mutagenic call (Test System: E. COLI, Strain/Indicator: WP2, Metabolic Activation: RAT, LIVER, Method: STANDARD PLATE) was “active; positive” and the mutagenic call (Test System: E. COLI, Strain/Indicator: WP2HCR, Metabolic Activation: NONE, Method: STANDARD PLATE) was “active; positive”. For the same compound, the mutagenic call (Test System: E. COLI, Strain/Indicator: WP2HCR, Metabolic Activation: S-9 MIX, Method: STANDARD PLATE) was “active; positive” and the mutagenic call (Test System: E. COLI, Strain/Indicator: WP2 UVRA, Metabolic Activation: NONE, Method: STANDARD PLATE) was “active; positive”.

`C[C@@]12CCC=C(C=O)[C@]1(C=O)C2` was tested, and the mutagenic call [1] was “active; positive” and the mutagenic call [3] was “active; positive”.

`[Pb]` was tested, and the mutagenic call (End Point: IN VIVO MICRONUCLEUS, Test System: PERIPHERAL BLOOD LYMPHOCYTES, Species: HUMAN, Strain/Sex: MALE, Route: PROBABLY INHALATION, Method: 72 HR CONTINUOUS TREATMENT) was “active; positive”, the mutagenic call [1] was “inactive; negative” and the mutagenic call (Test System: AMES SALMONELLA TYPHIMURIUM, Strain/Indicator: TA98, Metabolic Activation: RAT, LIVER, S-9, PHENOBARBITAL, Method: STANDARD PLATE) was “inactive; negative”. The mutagenic call [11] was “active; positive”, the mutagenic call (Test System: AMES SALMONELLA TYPHIMURIUM, Strain/Indicator: TA102, Metabolic Activation: RAT, LIVER, S-9, PHENOBARBITAL, Method: STANDARD PLATE) was “inactive; negative” and the mutagenic call [5] was “inactive; negative”. The mutagenic call (Test System: AMES SALMONELLA TYPHIMURIUM, Strain/Indicator: TA1535, Metabolic Activation: RAT, LIVER, S-9, PHENOBARBITAL, Method: STANDARD PLATE) was “inactive; negative”, the mutagenic call [7] was “inactive; negative” and the mutagenic call (Test System: AMES SALMONELLA TYPHIMURIUM, Strain/Indicator: TA1537, Metabolic Activation: RAT, LIVER, S-9, PHENOBARBITAL, Method: STANDARD PLATE) was “inactive; negative”.

For `Cc1cc2cc3ccccc3c3ccc4cccc1c4c23`, the mutagenic call (Test System: AMES SALMONELLA TYPHIMURIUM, Strain/Indicator: TA100, Metabolic Activation: RAT, INTACT HEPATOCYTES, AROCLOR 1254, Method: PREINCUBATION) was “active; positive” and the mutagenic call (Test System: AMES SALMONELLA TYPHIMURIUM, Strain/Indicator: TA100, Metabolic Activation: RAT, NADPH-FORTIFIED HOMOGENIZED HEPATOCYTES, AROCLOR 1254, Method: PREINCUBATION) was “active; positive”.

In the case of `CCCCCCCCOC[N+](C)(C)Cc1ccccc1`, the mutagenic call (Test System: BACILLUS SUBTILIS, Strain/Indicator: H17/REC, Metabolic Activation: NONE, Method: STANDARD PLATE) is reported as “inactive; negative” and the mutagenic call (Test System: BACILLUS SUBTILIS, Strain/Indicator: M45, Metabolic Activation: NONE, Method: STANDARD PLATE) is reported as “inactive; negative”.

For `CC[C@@]1(O)C[C@H](O[C@H]2C[C@H](N(C)C)[C@H](O)[C@H](C)O2)c2c(cc3c(c2O)C(=O)c2c(O)ccc(O)c2C3=O)[C@H]1C(=O)OC`, the mutagenic call [11] was “active; positive”, the mutagenic call (Test System: AMES SALMONELLA TYPHIMURIUM, Strain/Indicator: TA104, Metabolic Activation: NONE, Method: STANDARD PLATE) was “active; positive” and the mutagenic call (Test System: AMES SALMONELLA TYPHIMURIUM, Strain/Indicator: TA1537, Metabolic Activation: NONE) was “active; positive”. The mutagenic call (Test System: AMES SALMONELLA TYPHIMURIUM, Strain/Indicator: TA1537, Metabolic Activation: RAT, LIVER, S-9, AROCLOR 1254) was “active; positive”.

In the case of `Cc1cc(O)c2c(c1)C(=O)c1cc(O)c(O)c(O)c1C2=O`, the mutagenic call [7] is reported as “inactive; negative”.
